Experiment [1] relates to MCF7. In words: Cytotoxicity against human MCF7 after 72 hrs by MTT assay. Format: functional, cell-based. (Formazan colour is commonly taken as a measure of viable cells.)
The subject of experiment [2] is RPMI-8226. In words: Cytotoxicity against human RPMI8226 after 72 hrs by MTT assay. Format: functional, cell-based.
The nature of experiment [3]: Cytotoxicity against mouse LMTK at 173 uM after 72 hrs by MTT assay.
For experiment [4], the system named is RPMI-8226. The experiment can be described thus: Cytotoxicity against human RPMI8226 at 25 ug/ml after 72 hrs by MTT assay. Format: functional. The note with it: RPMI-8226, 72 h.
The test system of experiment [5] is MCF7. The experiment can be described thus: Cytotoxicity against human MCF7 at 25 ug/ml after 72 hrs by MTT assay. It is filed as functional, cell-based. The note with it: MCF7, 72 h.
Experiment [6] has as its system Salmonella typhimurium. In words: Antimutagenic activity in Salmonella Typhimurium TA102 assessed as inhibition of H2O2-induced mutagenesis at 0.05 to […] after 48 hrs by Ames test. Format: functional, organism-based. The conditions noted are these: Salmonella enterica subsp. enterica serovar Typhimurium.
Experiment [7] deals with Salmonella typhimurium. In words: Antimutagenic activity in Salmonella Typhimurium TA102 assessed as inhibition of H2O2-induced mutagenesis at 23.5 uM after 48 hrs by Ames test. It is filed as functional, Salmonella enterica subsp. enterica serovar Typhimurium. The note with it: Salmonella enterica, TA102, 48 h. In general terms: The Ames test uses bacterial strains that need an amino acid and regain growth without it when mutated back.

Experiment [8] concerns Salmonella typhimurium. In words: Antimutagenic activity in Salmonella Typhimurium TA102 assessed as inhibition of H2O2-induced mutagenesis at 26.9 uM after 48 hrs by Ames test. Format: functional, organism-based, Salmonella enterica subsp. enterica serovar Typhimurium.

Values after ≈ are worked out from the molar mass of the structure shown. Active and inactive are the calls of the source. No cut-off for these calls is given here.

Broadly, the IC50 is the concentration that inhibits the measured activity by half. Higher therefore signals weaker potency. For `CC1=C(SCCO)C(=O)c2c(F)c(F)c(F)c(F)c2C1=O`, the 50% inhibitory concentration (IC50) is 173 µg/mL (≈ 540 µM) with MCF7 [1], 14.8 µg/mL (≈ 46.2 µM) in the experiment with RPMI-8226 [2] and “Not Active” in experiment [3].

The term inhibition denotes how much of the control response was suppressed. `CCCCNC1=C(F)C(=O)c2c(F)c(NCCCC)c(F)c(NCCCC)c2C1=O`: the figures for the inhibition at 25 µg/mL in the experiment on RPMI-8226 [4] and with MCF7 [5] were 30% and 45%, respectively. The outcome with Salmonella typhimurium [6] was Active. Also, the inhibition at 23.5 µM in the experiment with Salmonella typhimurium [7] was determined as 55%.

The term Inhibition denotes the drop in the measured response relative to a control, in per cent. As for `CCCCNC1=C(F)C(=O)c2c(F)c(NCCCC)c(F)c(F)c2C1=O`, the inhibition at 25 µg/mL in the experiment with RPMI-8226 [4] is 17%; in the experiment on MCF7 [5], 10%. The result in the experiment with Salmonella typhimurium [6] was Active. Besides, the Inhibition in the experiment on Salmonella typhimurium [8] is on record as 81%.

For the origin of these results see ChEMBL document CHEMBL1154684, “Cytotoxicity of new n-butylamino and sulfur-containing derivatives of polyfluorinated 1,4-naphthoquinone” (Eur J Med Chem, 2010).
